From PMC8230315, “A Pan-Inhibitor for Protein Arginine Methyltransferase Family Enzymes” (Biomolecules, 2021) come the findings set out here.

Entries after “also recorded” stand apart in the source; their conditions may differ.

In one assay the target is T1, PRMT5 (C449S)/MEP50 (Homo sapiens, UniProt O14744, C449S).
T1 construct: purchased Reaction Biology
In words: HotSpot radioisotope 3H-AdoMet methyltransferase assay, PRMT5 (C449S)/MEP50. In kind it is biochemical. As for the experimental part: Future studies will focus on obtaining structural information of II757 bound to PRMTs to inform how to connect to a substrate portion to increase both potency and selectivity for each PRMT.
Figure 6 Selectivity of II757 against the panel of PRMTs. II757 was tested in 10 doses with threefold serial dilution in the HotSpot methyltransferase assay at reaction biology. TEXT PRINTED IN THE PICTURE: II757: IC50 (nM) PRMT1: 16.4; IC50 (nM) PRMT3: 321; IC50 (nM) PRMT4: 5.05; IC50 (nM) PRMT5/MEP50 Complex: 18.2; IC50 (nM) PRMT5 (C449S)/MEP50: 36.6; IC50 (nM) PRMT6: 30.5; IC50 (nM) PRMT7: 555; IC50 (nM) PRMT8: 32.1

Assay [1] deals with histone H4 Arg3 asymmetric dimethylation (H4R3me2a). The assay is described as follows: Cellular arginine methylation assay, Western blot in HEK293 cells. The assay is classed as cell-based. As to conditions: 48 h, at 10 µM. As for the experimental part:
Furthermore, we proceeded to investigate the inhibitory effects of II757 on the methylation level of histone H4 Arg3 via Western blotting to check its cellular inhibition. […] Future studies will focus on tethering this moiety with reported substrate-competitive inhibitors to enhance the selectivity and cellular potency.
HEK293 cell line was cultured in DMEM media supplemented with 10% FBS and 1% antibiotic-antimycotic (Gibco, Fisher, Waltham, MA, USA). The cells were maintained in a tissue culture dish (Falcon 353003, Fisher, Waltham, MA, USA) until seeding at a density of 0.03 × 10^6 cells/mL into a 24-well tissue culture plate (Falcon 353047, Fisher, Waltham, MA, USA). The cells were incubated overnight at 37 °C in 5% CO2 with the lid on. They were then treated with the inhibitors at different concentrations for 48 h. […]
The protein was quantified using BCA (Pierce BCA Protein Assay Kit, 23225, Fisher, Waltham, MA, USA) and equal amounts of protein were resolved by SDS-PAGE electrophoresis and blotted on Transfer membrane (Immun-Blot PVDF Membranes, Bio-Rad, Hercules, CA, USA Bio-Rad, 1620177). […] The membranes were washed three times with 1X TBST for 5 min each, and the proteins were detected by ECL (Bio-Rad, Hercules, CA, USA).

The target in another assay is PRMT1 (Homo sapiens, UniProt Q99873). In words: Inhibition mechanism kinetic analysis, SAHH-coupled fluorescence assay with PRMT1. The assay is classed as biochemical. As to the method:
The fluorescence-based SAHH-coupled assay was employed for the enzyme kinetic study. Varying concentrations of SAM (from 0.5 to 8 Km) with 5 μM fixed concentration of H4-21 or varying concentration of H4-21 (from 0.5 to 8 Km) with 10 μM fixed concentration of SAM was included in reactions with a series concentration of compounds. All the IC50 values were determined in triplicate. Fluorescence was monitored on a BMG CLARIOstar microplate with excitation at 380 nm and emission at 505 nm. Data were processed using GraphPad Prism software 7.0.

Sequence of PRMT1 (Q99873 whole entry, species assumed): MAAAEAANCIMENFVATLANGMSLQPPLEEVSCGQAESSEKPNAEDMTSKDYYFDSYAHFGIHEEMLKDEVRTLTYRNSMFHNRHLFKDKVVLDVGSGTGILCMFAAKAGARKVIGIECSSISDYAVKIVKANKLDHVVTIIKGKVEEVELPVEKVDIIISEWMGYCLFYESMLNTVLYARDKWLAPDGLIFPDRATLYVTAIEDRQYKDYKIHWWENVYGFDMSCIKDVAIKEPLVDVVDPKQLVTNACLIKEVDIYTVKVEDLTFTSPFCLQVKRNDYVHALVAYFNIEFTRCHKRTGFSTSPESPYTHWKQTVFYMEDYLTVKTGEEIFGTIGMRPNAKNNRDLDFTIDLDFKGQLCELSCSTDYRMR
T1 sequence (O14744 whole entry C449S): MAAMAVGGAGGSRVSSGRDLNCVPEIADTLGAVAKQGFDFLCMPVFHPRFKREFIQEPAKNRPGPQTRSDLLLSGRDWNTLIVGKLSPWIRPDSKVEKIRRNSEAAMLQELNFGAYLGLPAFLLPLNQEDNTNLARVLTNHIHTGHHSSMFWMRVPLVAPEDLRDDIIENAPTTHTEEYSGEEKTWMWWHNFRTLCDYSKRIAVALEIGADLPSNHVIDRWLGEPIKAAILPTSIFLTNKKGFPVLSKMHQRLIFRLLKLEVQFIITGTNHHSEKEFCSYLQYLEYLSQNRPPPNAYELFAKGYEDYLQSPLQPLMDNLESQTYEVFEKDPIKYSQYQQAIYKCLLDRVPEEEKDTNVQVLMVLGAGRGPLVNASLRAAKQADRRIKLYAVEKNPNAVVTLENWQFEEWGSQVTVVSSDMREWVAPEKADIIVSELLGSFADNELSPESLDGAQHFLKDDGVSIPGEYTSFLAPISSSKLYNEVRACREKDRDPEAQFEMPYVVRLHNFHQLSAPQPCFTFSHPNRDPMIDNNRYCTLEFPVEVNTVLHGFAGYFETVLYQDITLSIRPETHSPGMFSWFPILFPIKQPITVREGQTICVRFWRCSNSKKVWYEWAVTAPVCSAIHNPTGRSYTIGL
T1 sequence (Q9BQA1 whole entry partner): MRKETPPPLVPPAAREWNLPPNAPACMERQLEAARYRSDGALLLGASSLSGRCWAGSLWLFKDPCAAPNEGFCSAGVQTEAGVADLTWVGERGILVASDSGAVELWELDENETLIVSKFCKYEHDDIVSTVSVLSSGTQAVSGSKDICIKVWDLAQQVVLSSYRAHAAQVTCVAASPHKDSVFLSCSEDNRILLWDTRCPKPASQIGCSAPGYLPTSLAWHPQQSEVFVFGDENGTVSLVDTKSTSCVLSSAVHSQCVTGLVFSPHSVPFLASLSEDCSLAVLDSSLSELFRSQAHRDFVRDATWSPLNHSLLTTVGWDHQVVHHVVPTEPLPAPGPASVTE

On to `N=C(NCCCSC[C@H]1O[C@@H](n2cnc3c(N)ncnc32)[C@H](O)[C@@H]1O)Nc1cccc(Br)c1` [Compound 6l, 1-(3-((((2S,3S,4R,5R)-5-(6-amino-9H-purin-9-yl)-3,4-dihydroxytetrahydrofuran-2-yl)methyl)thio)propyl)-3-(3-bromophenyl)guanidine], for which 0.0366 µM corresponded to half-maximal inhibition against PRMT5 (C449S)/MEP50 (IC50). Further, the H4R3me2a level entry in assay [1] is recorded as “decrease”. Moreover, on PRMT1 (H4-21 from 0.5 to 8 Km, SAM fixed at 10 µM), the “inhibition pattern versus peptide substrate H4-21” value is “noncompetitive”. Also, the “inhibition pattern versus SAM” value on PRMT1 (SAM from 0.5 to 8 Km, H4-21 fixed at 5 µM, listed as II757) is reported as “competitively binds at the SAM binding site; also recorded: SAM-competitive inhibitor”.
